# Assay results reported in PMC5393024, “Discovery and characterization of natural tropolones as inhibitors of the antibacterial target CapF from Staphylococcus aureus” (Scientific Reports, 2015).
# Tests used:
# [1] = ITC titration of free Zn2+ in solution; format: binding; conditions: 150 µM Zn2+ (ZnCl2) titrated with 1.65 mM compound
# Description: Because tropolone and its analogs have been described as metal chelators in proteins, we anticipated that binding of the inhibitor to CapF is governed by the Zn^2+ ion present in the cupin domain[12]. To confirm this hypothesis, we performed two different types of experiments. First, we determined the binding properties of 3-isopropenyl-tropolone to apo-CapF (i.e. Zn^2+-depleted CapF) and to holo-CapF (reconstituted with Zn^2+) by isothermal titration calorimetry (ITC). The stoichiometry is consistent with a 1:1 binding model.
# Figure S3. Zn2+ governs the binding of inhibitor to CapF. (a) Titration of 150 µM Zn2+ (prepared
# from ZnCl2) with 1.65 mM 3-isopropenyl-tropolone. (b) Fluorescence of the Zn2+-sensitive dye
# FluoZin-3 (1.0 µM) in the presence of CapF (1 µM), CapF (1 µM) with 3-isopropenyl-tropolone […]
# [2] = system: CapF reconstituted with Zn^2+; test: FluoZin-3 binding competition assay; set-up: species or system Staphylococcus aureus
# Description: Figure 3 Binding of 3-isopropenyl-tropolone to CapF requires Zn^2+. CapF (150 μM) reconstituted with Zn^2+ was titrated with 1.65 mM inhibitor in the absence (a) or the presence (b) of 1 mM EDTA. The upper panels correspond to the titration data, and the lower panels to the integrated binding isotherms. (c) Binding competition assay. CapF (1.0 μM) reconstituted with Zn^2+ in the presence of the Zn^2+-sensitive dye FluoZin-3 (1.0 μM) was titrated with 3-isopropenyl-tropolone (λEX = 490 nm; λEM = 520 nm).
# Second, the fluorescence of the Zn^2+-specific indicator FluoZin-3[19][20] was examined in the presence of CapF. The signal of FluoZin-3 increases dramatically in the presence of Zn^2+ ions when the metal is accessible to the dye. […] In contrast, the fluorescence of FluoZin-3 with apo-CapF, or with holo-CapF in the presence of 3-isopropenyl-tropolone, was negligible.
# Fluorescence measurements were carried out using the Zn^2+-sensitive dye FluoZin-3 (Life Technologies) in a buffer composed of 10 mM HEPES, 150 mM NaCl (pH 7.4) supplemented with 5% (v/v) DMSO at 25 °C. The fluorescence intensities were measured in a plate reader (PHERAstar, BMG Labtech, Durham, NC) with excitation and emission wavelengths set to 490 nm and 520 nm, respectively.
# Figure S3. Zn2+ governs the binding of inhibitor to CapF. […]
# from ZnCl2) with 1.65 mM 3-isopropenyl-tropolone. (b) Fluorescence of the Zn2+-sensitive dye […]
# [3] = system: WT CapF; test: DSC thermal stability of WT CapF; format: binding, Staphylococcus aureus; conditions: 24 μM protein, 240 μM inhibitor
# Description: (§1) Thermal stability of CapF was examined by DSC in a ultrasensitive VP-capillary micro-calorimeter (Microcal). Prior to the experiment the protein was equilibrated in a buffer composed of 50 mM HEPES (pH 7.5), 50 mM NaCl and 5% DMSO. The concentration of protein and inhibitor were adjusted to 24 μM and 240 μM, respectively. The samples were heated between 10 and 110 °C at a scan rate of 1 °C/min. Data analysis was carried out with ORIGIN7 using a two-state transition model.
# [4] = system: CapFΔ57-70; test: DSC thermal stability of CapFΔ57-70; format: binding, Staphylococcus aureus; conditions: 24 μM protein, 240 μM inhibitor
# Description: as §1
# Figure S6. Thermal stability of CapF examined with DSC. (a) CapFΔ57-70, and (b) CapFΔ57-70
# in the presence of 3-isopropenyl-tropolone. Concentration of CapF and inhibitor was 24 µM and
# 240 µM, respectively. Experimental data and fitting curves are represented in black and red lines,
# (1 picture or pasted object on this page, not shown here)
# [5] = system: CapF; test: HPLC-based inhibition assay (CapE/CapF coupled reaction); format: biochemical, Staphylococcus aureus; conditions: 1 mM compound, 37 °C, 2 hours
# Description: For that purpose, an HPLC-based assay monitoring the consumption of substrate and the appearance of product was employed (Fig. 2b)[12]. Whereas in the absence of 3-isopropenyl-tropolone the substrate was converted into product with nearly quantitative yield (91%), in the presence of 1 mM 3-isopropenyl-tropolone the peaks corresponding to substrate and product were largely absent (their combined areas were <18%). Instead, a large peak corresponding to the byproduct generated by the enzyme CapE under thermodynamic control was observed (80% yield as judged from the area under the curve). To confirm that inhibition of 3-isopropenyl-tropolone is specific for CapF we performed an additional experiment employing only CapE, which is the enzyme generating the substrate for CapF in the functional assay (Supplementary Information Figure S2).
# For the HPLC-based inhibition assay, a solution containing 1.0 μM CapE, 0.02 μM CapF, 250 μM UDP-D-GlcNAc, 250 μM NADPH, and 1 mM compound in HBS buffer supplemented with 0.005% (v/v) Tween-20 and 5% (v/v) DMSO were incubated at 37 °C for 2 hours. The reaction was stopped by addition of 100 μL of ice-cold phenol/chloroform/isoamyl alcohol in a 25:24:1 […]. The supernatant containing the products of the reaction was mixed with 100 μL of chloroform and examined by HPLC using a CarboPac PA1 anion-exchange column (Dionex) as described previously. […]
smiles,measurement,setting,value
C=C(C)c1ccccc(=O)c1O [3-isopropenyl-tropolone],binding to free-Zn^2+ in solution by ITC,[1],not detected
same,inflexion point of FluoZin-3 fluorescence signal vs concentration of compound,"[2]; CapF 1.0 μM, FluoZin-3 1.0 μM, 25 °C",51 µM
same,fluorescence of FluoZin-3 with holo-CapF in the presence of compound,"[2]; CapF 1 µM, compound 1.0 mM",negligible
same,ΔTM (decrease in thermal stability),[3],5.2 ± 0.4 °C
same,TM,[3]; WT CapF alone 59.9 ± 0.2,54.7 ± 0.2 °C
same,ΔTM (decrease in thermal stability),[4],6.3 ± 0.2 °C
same,TM,[4]; CapFΔ57-70 alone 60.7 ± 0.1,54.4 ± 0.1 °C
same,yield of byproduct generated by CapE (area under the curve),[5],80%
same,combined areas of substrate and product peaks,[5]; 91% product without inhibitor,< 18%
